Results reported in ChEMBL document CHEMBL1201862, “PubChem BioAssay data set” (2004).
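1) Cells in 96-well plates. 2) Compound, 48 h, 5 concentrations. 3) Linear interpolation between surrounding doses. 4) Unreached endpoint = highest concentration. GI50 is the concentration that inhibits growth by half.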 Active and inactive are the calls of the source. Rule as the data show it: active = GI50 up to about 1.1 µM and inactive = higher.

What was measured:
Assay in all cases: growth of human tumour cells (NCI), 48 h
SK-OV-3 = system: SK-OV-3
OVCAR-8 = system: OVCAR-8
SK-MEL-2 = system: SK-MEL-2
786-0 = system: 786-0
SK-MEL-5 = system: SK-MEL-5
SF-539 = system: SF-539
UO-31 = system: UO-31
UACC-257 = system: UACC-257
OVCAR-4 = system: OVCAR-4
TK-10 = system: TK-10
A549 = system: A549
HCT-116 = system: HCT-116
SW-620 = system: SW-620
RPMI-8226 = system: RPMI-8226
LOX IMVI = system: LOX IMVI
NCI/ADR-RES = system: NCI/ADR-RES
MOLT-4 = system: MOLT-4
SK-MEL-28 = system: SK-MEL-28
T47D = system: T47D
CCRF-CEM = system: CCRF-CEM

Compound	GI50 (SK-OV-3)	GI50 (OVCAR-8)	GI50 (SK-MEL-2)	GI50 (786-0)	GI50 (SK-MEL-5)	GI50 (SF-539)	GI50 (UO-31)	GI50 (UACC-257)	GI50 (OVCAR-4)	GI50 (TK-10)	GI50 (A549)	GI50 (HCT-116)	GI50 (SW-620)	GI50 (RPMI-8226)	GI50 (LOX IMVI)	GI50 (NCI/ADR-RES)	GI50 (MOLT-4)	GI50 (SK-MEL-28)	GI50 (T47D)	GI50 (CCRF-CEM)
O=C1N2CCc3c([nH]c4ccccc34)C23CC2CCCCC12S3 (centres undefined)	> 100 µM (inactive)	> 100 µM (inactive)	< 0.01 µM (active)	> 100 µM (inactive)	63.5 µM (inactive)	> 100 µM (inactive)	> 100 µM (inactive)	18.5 µM (inactive)	> 100 µM (inactive)	28.3 µM (inactive)	> 100 µM (inactive)	> 100 µM (inactive)	> 100 µM (inactive)	48.8 µM (inactive)	> 100 µM (inactive)	> 100 µM (inactive)	24.7 µM (inactive)	> 100 µM (inactive)	> 100 µM (inactive)	–
CC1CC[C@@]2(OC1)OC1C[C@H]3[C@@H]4CC[C@H]5CC(OC6OC(CO)C(OC7OC(CO)C(O)C(O)C7OC7OC(CO)C(O)C(O)C7O)C(O)C6O)CCC5(C)[C@H]4CCC3(C)C1[C@@H]2C (some centres undefined)	1.57 µM (inactive)	6.24 µM (inactive)	2.38 µM (inactive)	1.56 µM (inactive)	6.89 µM (inactive)	1.22 µM (inactive)	0.993 µM (active)	4.31 µM (inactive)	1.14 µM (inactive)	1.61 µM (inactive)	2.1 µM (inactive)	1.94 µM (inactive)	0.933 µM (active)	1.88 µM (inactive)	1.76 µM (inactive)	6.38 µM (inactive)	1.29 µM (inactive)	2.12 µM (inactive)	2.16 µM (inactive)	1.35 µM (inactive)
O=C1NC(=O)C(CCC(=O)c2cccc3ccccc23)C(=O)N1	> 100 µM (inactive)	> 100 µM (inactive)	> 100 µM (inactive)	> 100 µM (inactive)	> 100 µM (inactive)	> 100 µM (inactive)	> 100 µM (inactive)	> 100 µM (inactive)	> 100 µM (inactive)	–	> 100 µM (inactive)	> 100 µM (inactive)	> 100 µM (inactive)	48.8 µM (inactive)	> 100 µM (inactive)	> 100 µM (inactive)	> 100 µM (inactive)	> 100 µM (inactive)	> 100 µM (inactive)	> 10 µM (inactive)
C#CCOCn1cc(C)c(=O)[nH]c1=O	> 100 µM (inactive)	> 100 µM (inactive)	> 100 µM (inactive)	> 100 µM (inactive)	> 100 µM (inactive)	> 100 µM (inactive)	> 100 µM (inactive)	> 100 µM (inactive)	–	> 100 µM (inactive)	> 100 µM (inactive)	> 100 µM (inactive)	> 100 µM (inactive)	> 100 µM (inactive)	> 100 µM (inactive)	> 100 µM (inactive)	> 100 µM (inactive)	> 100 µM (inactive)	> 100 µM (inactive)	> 100 µM (inactive)
O=Cc1ccc(-c2ccc(-c3ccc(CO)s3)o2)s1	19.7 µM (inactive)	7.28 µM (inactive)	35.7 µM (inactive)	2.47 µM (inactive)	5.48 µM (inactive)	17.9 µM (inactive)	15.6 µM (inactive)	0.364 µM (active)	0.318 µM (active)	0.237 µM (active)	14.8 µM (inactive)	0.841 µM (active)	2.22 µM (inactive)	1.54 µM (inactive)	9.04 µM (inactive)	10.6 µM (inactive)	2.92 µM (inactive)	> 35.9 µM (inactive)	2.21 µM (inactive)	1.58 µM (inactive)
COc1ccc(C2C(C#N)=C(S)N(C3OC(CO)C(O)C(O)C3O)C(C)=C2C(C)=O)cc1 (centres undefined)	–	> 100 µM (inactive)	> 100 µM (inactive)	> 100 µM (inactive)	42.2 µM (inactive)	> 100 µM (inactive)	> 100 µM (inactive)	> 100 µM (inactive)	> 100 µM (inactive)	> 100 µM (inactive)	> 100 µM (inactive)	> 100 µM (inactive)	> 100 µM (inactive)	62.1 µM (inactive)	> 100 µM (inactive)	> 100 µM (inactive)	40.8 µM (inactive)	> 100 µM (inactive)	30.5 µM (inactive)	> 100 µM (inactive)
COc1cc(/C=N/n2c(-c3ccccc3)n[nH]c2=O)cc(OC)c1OC	2.56 µM (inactive)	4.81 µM (inactive)	3.87 µM (inactive)	3.5 µM (inactive)	0.815 µM (active)	1.96 µM (inactive)	5.71 µM (inactive)	> 100 µM (inactive)	> 26.9 µM (inactive)	4.17 µM (inactive)	4.95 µM (inactive)	0.641 µM (active)	–	1.38 µM (inactive)	3.22 µM (inactive)	1.44 µM (inactive)	0.733 µM (active)	> 28 µM (inactive)	> 100 µM (inactive)	1.76 µM (inactive)
O=C(O)c1ccc(S(=O)(=O)c2ccccc2[N+](=O)[O-])cc1	> 10 µM (inactive)	> 10 µM (inactive)	> 10 µM (inactive)	> 10 µM (inactive)	> 10 µM (inactive)	> 10 µM (inactive)	–	> 10 µM (inactive)	> 10 µM (inactive)	> 10 µM (inactive)	> 10 µM (inactive)	> 10 µM (inactive)	> 10 µM (inactive)	> 10 µM (inactive)	> 10 µM (inactive)	> 10 µM (inactive)	> 10 µM (inactive)	> 10 µM (inactive)	> 10 µM (inactive)	> 10 µM (inactive)
CC(=S)N/C=C1/C(=O)C=C(C)OC1=O	> 100 µM (inactive)	> 100 µM (inactive)	> 100 µM (inactive)	> 100 µM (inactive)	90.2 µM (inactive)	> 100 µM (inactive)	> 100 µM (inactive)	> 100 µM (inactive)	> 100 µM (inactive)	> 100 µM (inactive)	> 100 µM (inactive)	> 100 µM (inactive)	> 100 µM (inactive)	> 100 µM (inactive)	> 100 µM (inactive)	> 100 µM (inactive)	> 100 µM (inactive)	–	> 100 µM (inactive)	> 100 µM (inactive)
COC(=O)C12CCC(C(F)(F)C1=O)C2(C)C (centres undefined)	> 100 µM (inactive)	> 100 µM (inactive)	> 100 µM (inactive)	> 100 µM (inactive)	> 100 µM (inactive)	> 100 µM (inactive)	> 100 µM (inactive)	> 100 µM (inactive)	> 100 µM (inactive)	> 100 µM (inactive)	> 100 µM (inactive)	> 100 µM (inactive)	> 100 µM (inactive)	> 100 µM (inactive)	> 100 µM (inactive)	> 100 µM (inactive)	> 100 µM (inactive)	> 100 µM (inactive)	> 100 µM (inactive)	–
O=C(NCCCCCCCCCCCCNC(=O)Nc1cccc2ccccc12)Nc1cccc2ccccc12	–	22.9 µM (inactive)	15.2 µM (inactive)	13.5 µM (inactive)	20.8 µM (inactive)	13.2 µM (inactive)	19.1 µM (inactive)	> 10 µM (inactive)	11.2 µM (inactive)	17.7 µM (inactive)	18.2 µM (inactive)	17.5 µM (inactive)	17.4 µM (inactive)	19.5 µM (inactive)	18 µM (inactive)	24.1 µM (inactive)	20.3 µM (inactive)	19.5 µM (inactive)	19.1 µM (inactive)	16.6 µM (inactive)
CC1(c2nc3ccccc3[nH]2)CCC(C(N)=O)C(C)(C)O1 (centres undefined)	55.2 µM (inactive)	> 100 µM (inactive)	> 100 µM (inactive)	> 100 µM (inactive)	> 100 µM (inactive)	> 100 µM (inactive)	> 100 µM (inactive)	> 100 µM (inactive)	> 100 µM (inactive)	> 100 µM (inactive)	> 100 µM (inactive)	> 100 µM (inactive)	> 100 µM (inactive)	> 100 µM (inactive)	> 100 µM (inactive)	> 100 µM (inactive)	> 100 µM (inactive)	> 100 µM (inactive)	> 100 µM (inactive)	> 100 µM (inactive)
CC(=O)NC1C(OCc2ccccc2)OC(CO)C(O)C1OC(C)C(=O)NC(C)C(=O)N[C@@H](CCC(=O)OCCCNC1c2ccccc2Nc2cccc([N+](=O)[O-])c21)C(N)=O (some centres undefined)	0.0194 µM (active)	< 0.01 µM (active)	< 0.01 µM (active)	< 0.01 µM (active)	< 0.01 µM (active)	< 0.01 µM (active)	< 0.01 µM (active)	0.0123 µM (active)	< 0.0111 µM (active)	< 0.01 µM (active)	< 0.01 µM (active)	< 0.01 µM (active)	< 0.01 µM (active)	< 0.01 µM (active)	0.0269 µM (active)	0.0145 µM (active)	0.0102 µM (active)	< 0.01 µM (active)	0.174 µM (active)	–
CCCCCCCCCC[C@@H](O)[C@H]1CC[C@@H]([C@H]2CC[C@H]([C@H](O)CCCCCCCCCC[C@@H]3CC(CC(C)=O)C(=O)O3)O2)O1 (some centres undefined)	–	2.34 µM (inactive)	4.94 µM (inactive)	25.8 µM (inactive)	0.01 µM (active)	7.05 µM (inactive)	2.49 µM (inactive)	2.14 µM (inactive)	18.9 µM (inactive)	4.73 µM (inactive)	2.16 µM (inactive)	2.68 µM (inactive)	4.4 µM (inactive)	2.39 µM (inactive)	1.23 µM (inactive)	0.167 µM (active)	4.13 µM (inactive)	3.46 µM (inactive)	1.7 µM (inactive)	12.9 µM (inactive)
